Literature values in patent US7674912B2, “Pro-drugs of N-thiazol-2-yl-benzamide derivatives” (priority 2005, dated 2010).
Like-named read-outs stand apart in the source and are kept apart here.

Assays:
[1] = tested on: unilateral 6-OHDA (6-hydroxydopamine) lesioned mice and rats; details: elicited by a subthreshold dose of levodopa, unilateral 6-OHDA lesioned mice and rats
[2] = tested on: MPTP treated mice and 6-OHDA-lesioned rats
[3] = tested on: mice; details: for total immobility time: mouse tail suspension test
[4] = tested on: non-human primates treated with MPTP
[5] = mice previously screened for having high immobility time

SMILES	contralateral rotations [1]	functional loss of dopaminergic nerve terminals in the striatum [2]	gliosis induced around degenerating neurons [2]	total immobility time [3]	dyskinesias ([4]; in vivo)	motor impairment induced by MPTP ([4]; non-human primates)	immobility [3, 5]	immobility ([3]; mice selectively bred for their helplessness)
CCn1c(=O)c2c(nc(/C=C/c3ccc(OC)c(OC)c3)n2C)n(CC)c1=O [KW-6002, 8-[(1E)-2-(3,4-dimethoxyphenyl)ethenyl]-1,3-diethyl-3,7-dihydro-7-methyl-1H-purine-2,6-dione]	enhance contralateral rotations	prevented functional loss of dopaminergic nerve terminals in the striatum	prevented gliosis	reduced the total immobility time	without causing dyskinesias	significantly improves motor impairment	–	–
Nc1nc2c(cnn2CCc2ccccc2)c2nc(-c3ccco3)nn12 [SCH58261, 2-(2-furanyl)-7-(2-phenylethyl)-7H-pyrazolo[4,3-e][1,2,4]triazolo[1,5-c]pyrimidin-5-amine]	enhance contralateral rotations	–	–	reduced the total immobility time	–	–	reduce immobility	reduced immobility
Nc1nc(NCCc2ccc(O)cc2)nc2nc(-c3ccco3)nn12 [ZM241385, 4-(2-[7-amino-2-(2-furyl)[1,2,4]triazolo[2,3-a][1,3,5]triazin-5-ylamino]-ethyl)phenol]	–	–	–	–	–	–	reduce immobility	–
